In paper PMC7942396, “Drug Repurposing Screen for Compounds Inhibiting the Cytopathic Effect of SARS-CoV-2” (Frontiers in Pharmacology, 2021):
Counter-ions that a name gives are not always drawn. Like-named read-outs stand apart in the source and are kept apart here.

Key:
[1] = system: SARS-CoV-2 (USA_WA1/2020); assay: microbe, parasite or virus in culture; assay type: cell-based; settings: for EC50: read-out: CPE EC50
[2] = system: Vero E6 cells
[3] = SARS-CoV-2 CPE assay, Vero E6 cells, confirmed anti-SARS-CoV-2 compounds
[4] = SARS-CoV-2 CPE assay, Vero E6 cells, efficacy
[5] = cytotoxicity counter-assay, Vero E6 cells without virus
[6] = read-out: Cytotox CC50, cytotoxicity counter-assay, Vero E6 cells without virus
[7] = […], DMSO 0%, no-virus control 100%, hit confirmation
[8] = Vero E6 cells without virus, 72 h
[9] = SARS-CoV-2 CPE assay, Vero E6 cells

Compound	EC50 [1, 3] [µM]	CPE % Efficacy [1, 4] [%]	% Cytotox [2, 5] [%]	CC50 [2, 6] [µM]	further results
COc1cc2nc(N3CCCCC3)nc(NC3CCN(Cc4ccccc4)CC3)c2cc1OC [NCGC00185849]	3.98	66.6	110.3	10	
CC(C)c1ccc(NC(=O)C(c2ccccc2)N(C)C(=O)Cc2c[nH]c3ccccc23)cc1 (stereo not shown) [PG-01]	3.55	98.0	110.5		
Cc1cccc(Nc2nc(-c3ccncc3)cs2)c1 [STF-62247, reference compound]					Shape of concentration-response in the CPE assay ([1]; Figure 3): bell-shaped concentration-responses due to cytotoxicity; CPE % Efficacy [1, 7]: 107.1%; EC50 [1]: 1.1 µM; CC50 ([2]; read-out: Cytotox CC50, Vero E6 cells without virus, 72 h): 11.2 µM
CC(NC(=O)[C@H](Cc1ccccc1)NC(=O)OCc1ccccc1)C(=O)CF (stereo partly shown) [Z-FA-FMK, reference compound]					CPE % Efficacy [1, 7]: 104.8%; EC50 [1]: 0.13 µM; % Cytotox [2, 8]: <30%
CCCCNc1ncc2c(-c3ccc(F)cc3)nn(CC3CCC(N)CC3)c2n1 (stereo not shown) [UNC-569]	9.82	46.0	34.2	4.92	
O=C(CCC1CCN(Cc2ccccc2)CC1)c1ccc2c(c1)NCCCC2.O=C(O)/C=C/C(=O)O [Zanapezil fumerate]	11.2	63.3	0.0		
O=C(O)c1ccc(CCCc2ccc(OCCc3ccc(F)cc3)cc2)o1 [D-942]	0.14	120.3	53.7	11.2	
COc1cc2nc(N3CCCCC3)nc(NC3CCN(C)CC3)c2cc1OC [NCGC00185859]	3.55	94.8	69.3	10	
C/C=C(\C)C(=O)O[C@H]1CC2C(=C1C)[C@H]1OC(=O)[C@](C)(O)[C@]1(O)[C@H](OC(=O)CCC)C[C@@]2(C)OC(C)=O (stereo partly shown) [NCGC00169033]	2.77	63.3	48.4	4.39	
Cc1cc(N2CCN(C(=O)Oc3ccc(-c4ccccc4)cn3)CC2)c2ccccc2n1 [NCGC00386928]			68.1	12.6	CPE % Efficacy [1, 9]: 63.4%; EC50 [1, 9]: 12.6 µM
CN(C)S(=O)(=O)c1ccc(NC(=S)N2CCC(C(O)(c3ccccc3)c3ccccc3)CC2)cc1 [CYM 9484]	11.2	30.8	13.8	19.9	
Cn1nc(C(C)(C)C)cc1C(=O)N[C@@H](Cc1cccc(Cl)c1)C(=O)NCC#N [Cathepsin Inhibitor 1, reference compound]					CPE % Efficacy [1, 7]: 114.4%; EC50 [1]: 0.25 µM; % Cytotox [2, 8]: <30%
C/C=C(/C)C(=O)O[C@H]1[C@@H]2[C@H](C)C(=O)O[C@@H]2C[C@@H](C)[C@@H]2C=CC(=O)[C@]21C [Brevelin A]	3.55	61.5	59.7	11.2	
COc1cccc2c1CCCC2CCCN1CCN(C2CCCCC2)CC1 (stereo not shown) [PB-28]			19.5	12.6	CPE % Efficacy [1, 9]: 88.6%; EC50 [1, 9]: 11.2 µM
Cc1nc(C)c(CN2CCN(C(c3ccc(F)cc3)c3ccc(F)cc3)CC2)nc1C [CXC-195]			0.0		CPE % Efficacy [1, 9]: 32.4%; EC50 [1, 9]: 12.6 µM
Cc1cc(CN)cc(C)c1NC(=O)c1ccc(-c2cc(Cl)ccc2Cl)o1 [CYM50358]	4.47	34.9	52.7		
C=C1C(=O)O[C@H]2C3=C(C)CCC[C@]3(C)C(=O)C[C@@H]12 [NCGC00168931]	2.24	40.6	69.6	10	

Compound	EC50 [1, 3] [µM]	CPE % Efficacy [1, 4] [%]	% Cytotox [2, 5] [%]	CC50 [2, 6] [µM]	further results
COc1ccc2sc(NC(c3ccc(OC(F)F)cc3)c3ccc4cccnc4c3O)nc2c1 (stereo not shown) [KIN1408]	0.89	69.8	77.9	0.71	
COc1ccc2c(c1)c(CCN(C)C)cn2S(=O)(=O)c1ccccc1.O=C(O)C(=O)O [MS 245 oxalate]			20.5	12.6	CPE % Efficacy [1, 9]: 76.1%; EC50 [1, 9]: 12.6 µM
Cl.Cl.O=S(=O)(c1cccc2ccccc12)n1ccc2ccc(N3CCN4CCCC4C3)cc21 (stereo not shown) [NPS ALX Compound 4a dihydrochloride]			93.1	12.6	CPE % Efficacy [1, 9]: 100.0%; EC50 [1, 9]: 12.6 µM
Cc1ccc(NC(=O)C(C)C)cc1C1CCN(Cc2ccc(Oc3ccc(F)c(F)c3)cc2)CC1.Cl [SNAP 94847 hydrochloride]	4.47	60.0	95.1	12.6	
Cc1ccc(C(=O)Nc2cccc(C(F)(F)F)c2)cc1Nc1nc(-c2cccnc2)nc2c1cnn2C [NVP-BHG712]	2.51	123.5			% Cytotox [2]: 58.4%; CC50 [2]: 3.98 µM
CC(C)C[C@H]1C(=O)O[C@H](Cc2ccc(N3CCOCC3)cc2)C(=O)N(C)[C@@H](CC(C)C)C(=O)O[C@H](C)C(=O)N(C)[C@@H](CC(C)C)C(=O)O[C@H](Cc2ccc(N3CCOCC3)cc2)C(=O)N(C)[C@@H](CC(C)C)C(=O)O[C@H](C)C(=O)N1C [Emodepside]	6.31	74.5	32.2	8.91	
COc1cccc(NC[C@@H](O)Cn2c3ccc(Br)cc3c3cc(Br)ccc32)c1 [(R)-P7C3-Ome]			32.2	11.2	CPE % Efficacy [1, 9]: 63.4%; EC50 [1, 9]: 12.6 µM
CCCCN1[C@@H]2CC[C@H]1CC(OC(c1ccc(F)cc1)c1ccc(F)cc1)C2.Cl (stereo partly shown) [JHW 007 hydrochloride]	7.08	87.4	38.8	12.6	
C[C@@H]1O[C@@H](O[C@@H]2[C@@H](O)[C@H](O[C@@H]3[C@@H](O)[C@@H](O)[C@H](O[C@H]4[C@H](OC(=O)[C@]56CCC(C)(C)C[C@H]5C5=CCC7[C@@]8(C)C[C@H](O)[C@H](O[C@@H]9O[C@@H](C)[C@H](O)[C@@H](O)[C@H]9O)[C@@](C)(CO)C8CC[C@@]7(C)[C@]5(C)C[C@H]6O)O[C@H](C)[C@H](O)[C@@H]4O)O[C@H]3C)OC[C@H]2O)[C@H](O)[C@H](O)[C@H]1O (stereo partly shown) [NCGC00385241]	0.85	123.9	98.7	1.91	
COc1ccc(CN2CCN(CCCSc3cc(C(C)(C)C)c(O)c(C(C)(C)C)c3)CC2)c(OC)c1OC [S-15176 difumarate salt, reference compound]					CPE % Efficacy [1, 7]: 127.4%; EC50 [1]: 3.8 µM; % Cytotox [2, 8]: <30%
Cc1cnc(NC(=O)c2cc(S(=O)(=O)N(C)C)ccc2N2CCCC2)s1 [ML414, reference compound]					EC50 [1]: 3.2 µM; % Cytotox [2, 8]: <30%
Cc1ccc(-c2c(C(=O)CCl)n(CCCO)c3ncnc(N)c23)cc1 [CMK]			15.2		CPE % Efficacy [1, 9]: 38.9%; EC50 [1, 9]: 12.6 µM
CCOC(=O)N[C@@H]1CC[C@@H]2[C@@H](C1)C[C@H]1C(=O)O[C@H](C)[C@H]1[C@H]2/C=C/c1ccc(-c2cccc(F)c2)cn1.O=S(=O)(O)O [Vorapaxar Sulfate]	4.47	57.7	32.4	12.6	
CC(C)(C)c1ccc(CN2CCN(C(c3ccccc3)c3ccc(Cl)cc3)CC2)cc1.Cl.Cl (stereo not shown) [Buclizine HCl]			0.0		CPE % Efficacy [1, 9]: 86.2%; EC50 [1, 9]: 14.1 µM
C/C(=N\NC(=O)c1cccc(S(=O)(=O)N2CCOCC2)c1)c1cc(Cl)ccc1O [SP2509]	1.26	42.0	67.4	1	
C[C@H]1CC[C@@]2(OC1)O[C@H]1CC3[C@@H]4CC[C@@H]5C[C@@H](O[C@@H]6O[C@H](CO)[C@@H](O[C@@H]7O[C@H](CO[C@@H]8OC[C@@H](O)[C@H](O)[C@H]8O)[C@@H](O[C@@H]8O[C@H](CO)[C@H](O)[C@H](O)[C@H]8O)[C@H](O)[C@H]7O)[C@H](O)[C@H]6O)CC[C@]5(C)C4CC[C@]3(C)[C@H]1[C@@H]2C (stereo partly shown) [NCGC00385658]	3.03	68.4	78.8	3.4	
